According to publication PMC10008561 (Nature Communications, 2023):
Values joined by “and” are separate entries in the source; they are usually repeats but may differ in a detail not shown here. Equal values may be shown once. Read-outs that look alike come from different tables or passages of the source.

Tests used:
human KOR [1] = biological target: T1, human KOR (Homo sapiens, UniProt P41145, G319L); test: cell-based; settings: HEK-293T
T1 construct: expressed in transfected cells; host or cells: HEK 293T (ATCC, CRL-3216)
T1 sequence (P41145 whole entry G319L): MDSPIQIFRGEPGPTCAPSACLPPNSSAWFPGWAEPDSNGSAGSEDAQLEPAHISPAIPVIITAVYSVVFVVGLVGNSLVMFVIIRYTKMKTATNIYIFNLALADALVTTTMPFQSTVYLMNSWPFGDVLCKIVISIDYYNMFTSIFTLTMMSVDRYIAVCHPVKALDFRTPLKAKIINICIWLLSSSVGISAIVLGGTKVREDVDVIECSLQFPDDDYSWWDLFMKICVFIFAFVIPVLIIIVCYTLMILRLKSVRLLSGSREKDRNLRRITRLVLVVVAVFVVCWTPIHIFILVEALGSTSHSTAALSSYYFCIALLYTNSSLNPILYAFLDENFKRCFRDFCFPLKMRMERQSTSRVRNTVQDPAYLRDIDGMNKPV

human KOR [2] = biological target: T2, human KOR (Homo sapiens, UniProt P41145, Q115N); test: cell-based; settings: HEK-293T
T2 construct: expressed in transfected cells; host or cells: HEK 293T (ATCC, CRL-3216)
T2 sequence (P41145 whole entry Q115N): as the sequence (P41145 whole entry G319L) above, with Q115N, L319G counted along it

human KOR [3] = biological target: T3, human KOR (Homo sapiens, UniProt P41145, S211A); test: cell-based; settings: HEK-293T
T3 construct: expressed in transfected cells; host or cells: HEK 293T (ATCC, CRL-3216)
T3 sequence (P41145 whole entry S211A): as the sequence (P41145 whole entry G319L) above, with S211A, L319G counted along it

MOR = biological target: T4, MOR (Homo sapiens, UniProt P35372); test: Radioligand competition binding (3H-Diprenorphine)
T4 construct: expressed in transfected cells; host or cells: HEK293
T4 sequence (P35372 whole entry): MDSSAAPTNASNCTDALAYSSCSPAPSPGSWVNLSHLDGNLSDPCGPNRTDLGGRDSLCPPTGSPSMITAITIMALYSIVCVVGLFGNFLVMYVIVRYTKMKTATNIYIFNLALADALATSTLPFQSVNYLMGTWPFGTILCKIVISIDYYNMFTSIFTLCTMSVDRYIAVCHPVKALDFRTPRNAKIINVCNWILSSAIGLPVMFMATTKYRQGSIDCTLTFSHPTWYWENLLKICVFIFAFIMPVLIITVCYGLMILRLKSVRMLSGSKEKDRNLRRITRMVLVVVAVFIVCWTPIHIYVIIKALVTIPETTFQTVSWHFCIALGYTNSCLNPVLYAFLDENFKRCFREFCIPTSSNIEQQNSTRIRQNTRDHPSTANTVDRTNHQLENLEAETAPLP

human KOR (GoB) [4] = biological target: T5, human KOR (GoB) (Homo sapiens, UniProt P41145, D105A); test: cell-based; settings: HEK-293T
T5 construct: expressed in transfected cells; host or cells: HEK293T
T5 sequence (P41145 whole entry D105A): as the sequence (P41145 whole entry G319L) above, with D105A, L319G counted along it

human KOR (GoB) [5] = biological target: T6, human KOR (GoB) (Homo sapiens, UniProt P41145, Y320L); test: cell-based; settings: HEK-293T
T6 construct: expressed in transfected cells; host or cells: HEK293T
T6 sequence (P41145 whole entry Y320L): as the sequence (P41145 whole entry G319L) above, with L319G, Y320L counted along it

human KOR (GoB) [6] = biological target: T7, human KOR (GoB) (Homo sapiens, UniProt P41145, E297A); test: cell-based; settings: HEK-293T
T7 construct: expressed in transfected cells; host or cells: HEK293T
T7 sequence (P41145 whole entry E297A): as the sequence (P41145 whole entry G319L) above, with E297A, L319G counted along it

human KOR (GoB) [7] = biological target: T8, human KOR (GoB) (Homo sapiens, UniProt P41145, Q115N); test: cell-based; settings: HEK-293T
T8 construct: expressed in transfected cells; host or cells: HEK293T
T8 sequence (P41145 whole entry Q115N): as the sequence (P41145 whole entry G319L) above, with Q115N, L319G counted along it

human KOR (GoB) [8] = biological target: T9, human KOR (GoB) (Homo sapiens, UniProt P41145, K227A); test: cell-based; settings: HEK-293T
T9 construct: expressed in transfected cells; host or cells: HEK293T
T9 sequence (P41145 whole entry K227A): as the sequence (P41145 whole entry G319L) above, with K227A, L319G counted along it

human KOR (GoB) [9] = biological target: T10, human KOR (GoB) (Homo sapiens, UniProt P41145, G319L); test: cell-based; settings: HEK-293T
T10 construct: expressed in transfected cells; host or cells: HEK293T
T10 sequence (P41145 whole entry G319L): as the sequence (P41145 whole entry G319L) above

human KOR (GoB) [10] = biological target: T11, human KOR (GoB) (Homo sapiens, UniProt P41145, F283A); test: cell-based; settings: HEK-293T
T11 construct: expressed in transfected cells; host or cells: HEK293T
T11 sequence (P41145 whole entry F283A): as the sequence (P41145 whole entry G319L) above, with F283A, L319G counted along it

human KOR (GoB) [11] = biological target: T12, human KOR (GoB) (Homo sapiens, UniProt P41145, L253A); test: cell-based; settings: HEK-293T
T12 construct: expressed in transfected cells; host or cells: HEK293T
T12 sequence (P41145 whole entry L253A): as the sequence (P41145 whole entry G319L) above, with L253A, L319G counted along it

human KOR (GoB) [12] = biological target: T13, human KOR (GoB) (Homo sapiens, UniProt P41145, N322A); test: cell-based; settings: HEK-293T
T13 construct: expressed in transfected cells; host or cells: HEK293T
T13 sequence (P41145 whole entry N322A): as the sequence (P41145 whole entry G319L) above, with L319G, N322A counted along it

human KOR (GoB) [13] = biological target: T14, human KOR (GoB) (Homo sapiens, UniProt P41145, R170A); test: cell-based; settings: HEK-293T
T14 construct: expressed in transfected cells; host or cells: HEK293T
T14 sequence (P41145 whole entry R170A): as the sequence (P41145 whole entry G319L) above, with R170A, L319G counted along it

human KOR (GoB) [14] = biological target: T15, human KOR (GoB) (Homo sapiens, UniProt P41145, K200A); test: cell-based; settings: HEK-293T
T15 construct: expressed in transfected cells; host or cells: HEK293T
T15 sequence (P41145 whole entry K200A): as the sequence (P41145 whole entry G319L) above, with K200A, L319G counted along it

human KOR (GoB) [15] = biological target: T16, human KOR (GoB) (Homo sapiens, UniProt P41145, T94V); test: cell-based; settings: HEK-293T
T16 construct: expressed in transfected cells; host or cells: HEK293T
T16 sequence (P41145 whole entry T94V): as the sequence (P41145 whole entry G319L) above, with T94V, L319G counted along it

human KOR (GoB) [16] = biological target: T17, human KOR (GoB) (Homo sapiens, UniProt P41145, D334A); test: cell-based; settings: HEK-293T
T17 construct: expressed in transfected cells; host or cells: HEK293T
T17 sequence (P41145 whole entry D334A): as the sequence (P41145 whole entry G319L) above, with L319G, D334A counted along it

human KOR (GoB) [17] = biological target: T18, human KOR (GoB) (Homo sapiens, UniProt P41145, F114L); test: cell-based; settings: HEK-293T
T18 construct: expressed in transfected cells; host or cells: HEK293T
T18 sequence (P41145 whole entry F114L): as the sequence (P41145 whole entry G319L) above, with F114L, L319G counted along it

human KOR (GoB) [18] = biological target: T19, human KOR (GoB) (Homo sapiens, UniProt P41145, R257A); test: cell-based; settings: HEK-293T
T19 construct: expressed in transfected cells; host or cells: HEK293T
T19 sequence (P41145 whole entry R257A): as the sequence (P41145 whole entry G319L) above, with R257A, L319G counted along it

human KOR (GoB) [19] = biological target: T20, human KOR (GoB) (Homo sapiens, UniProt P41145, D155A); test: cell-based; settings: HEK-293T
T20 construct: expressed in transfected cells; host or cells: HEK293T
T20 sequence (P41145 whole entry D155A): as the sequence (P41145 whole entry G319L) above, with D155A, L319G counted along it

human KOR (GoB) [20] = biological target: T21, human KOR (GoB) (Homo sapiens, UniProt P41145, N326A); test: cell-based; settings: HEK-293T
T21 construct: expressed in transfected cells; host or cells: HEK293T
T21 sequence (P41145 whole entry N326A): as the sequence (P41145 whole entry G319L) above, with L319G, N326A counted along it

human KOR (GoB) [21] = biological target: T22, human KOR (GoB) (Homo sapiens, UniProt P41145, N141A); test: cell-based; settings: HEK-293T
T22 construct: expressed in transfected cells; host or cells: HEK293T
T22 sequence (P41145 whole entry N141A): as the sequence (P41145 whole entry G319L) above, with N141A, L319G counted along it

human KOR (GoB) [22] = biological target: T23, human KOR (GoB) (Homo sapiens, UniProt P41145); test: cell-based
T23 construct: expressed in transfected cells; host or cells: HEK293T
T23 sequence (P41145 whole entry): as the sequence (P41145 whole entry G319L) above, with L319G counted along it

human KOR (GoB) [23] = biological target: T24, human KOR (GoB) (Homo sapiens, UniProt P41145, R274A); test: cell-based; settings: HEK-293T
T24 construct: expressed in transfected cells; host or cells: HEK293T
T24 sequence (P41145 whole entry R274A): as the sequence (P41145 whole entry G319L) above, with R274A, L319G counted along it

KOR K227A = KOR K227A (Homo sapiens, UniProt P41145, K227A); type: cell-based; design: expressed in transfected cells; host or cells: HEK 293T (ATCC, CRL-3216); settings: Log [Drug]
Sequence of KOR K227A (P41145 whole entry K227A): as the sequence (P41145 whole entry G319L) above, with K227A, L319G counted along it

human KOR (Gi3) [24] = biological target: T25, human KOR (Gi3) (Homo sapiens, UniProt P41145, N322A); test: cell-based; settings: HEK-293T
T25 construct: expressed in transfected cells; host or cells: HEK293T
T25 sequence (P41145 whole entry N322A): as the sequence (P41145 whole entry G319L) above, with L319G, N322A counted along it

human KOR (Gi3) [25] = biological target: T26, human KOR (Gi3) (Homo sapiens, UniProt P41145, D334A); test: cell-based; settings: HEK-293T
T26 construct: expressed in transfected cells; host or cells: HEK293T
T26 sequence (P41145 whole entry D334A): as the sequence (P41145 whole entry G319L) above, with L319G, D334A counted along it

human KOR (Gi3) [26] = biological target: T27, human KOR (Gi3) (Homo sapiens, UniProt P41145, T94V); test: cell-based; settings: HEK-293T
T27 construct: expressed in transfected cells; host or cells: HEK293T
T27 sequence (P41145 whole entry T94V): as the sequence (P41145 whole entry G319L) above, with T94V, L319G counted along it

human KOR (Gi3) [27] = biological target: T28, human KOR (Gi3) (Homo sapiens, UniProt P41145, R271A); test: cell-based; settings: HEK-293T
T28 construct: expressed in transfected cells; host or cells: HEK293T
T28 sequence (P41145 whole entry R271A): as the sequence (P41145 whole entry G319L) above, with R271A, L319G counted along it

human KOR (Gi3) [28] = biological target: T29, human KOR (Gi3) (Homo sapiens, UniProt P41145, K200A); test: cell-based; settings: HEK-293T
T29 construct: expressed in transfected cells; host or cells: HEK293T
T29 sequence (P41145 whole entry K200A): as the sequence (P41145 whole entry G319L) above, with K200A, L319G counted along it

human KOR (Gi3) [29] = biological target: T30, human KOR (Gi3) (Homo sapiens, UniProt P41145, Y320L); test: cell-based; settings: HEK-293T
T30 construct: expressed in transfected cells; host or cells: HEK293T
T30 sequence (P41145 whole entry Y320L): as the sequence (P41145 whole entry G319L) above, with L319G, Y320L counted along it

CN(C(=O)/C=C/c1ccoc1)[C@@H]1CC[C@@]2(O)[C@H]3Cc4ccc(O)c5c4[C@@]2(CCN3CC2CC2)[C@H]1O5 [Nalfurafine, nalfurafine]
Emax (human KOR [1]): 103 ± 4%
activation at 1 pM (human KOR [1]; read-out: cAMP response): 18.4%
activation at 31.62 pM (human KOR [1]; read-out: cAMP response): 24%
activation at 0.0001 µM (human KOR [1]; read-out: cAMP response): 46%
activation at 0.001 µM (human KOR [1]; read-out: cAMP response): 62.9%
activation at 0.01 µM (human KOR [1]; read-out: cAMP response): 94.9%
activation at 0.1 µM (human KOR [1]; read-out: cAMP response): 107%
activation at 1 µM (human KOR [1]; read-out: cAMP response): 104%
activation at […] (human KOR [1]; read-out: cAMP response): 44.6% and 75.9% and 100%
Emax (human KOR [2]): 98 ± 3%
Emax (human KOR [3]): 107 ± 2%
activation at 1 pM (human KOR [3]; read-out: cAMP response): 16.4%
activation at 3.162 pM (human KOR [3]; read-out: cAMP response): 71%
activation at 10 pM (human KOR [3]; read-out: cAMP response): 91.3%
activation at 31.62 pM (human KOR [3]; read-out: cAMP response): 99.8%
activation at 0.0001 µM (human KOR [3]; read-out: cAMP response): 106%
activation at 0.001 µM (human KOR [3]; read-out: cAMP response): 107%
activation at 0.01 µM (human KOR [3]; read-out: cAMP response): 108%
activation at 0.1 µM (human KOR [3]; read-out: cAMP response): 107%
activation at 1 µM (human KOR [3]; read-out: cAMP response): 103%
activation at […] (human KOR [3]; read-out: cAMP response): 107% (2×) and 105% and 104%
Ki (MOR): 13.2 nM
Emax (human KOR (GoB) [4]): 91%
Emax (human KOR (GoB) [5]): 76%
Emax (human KOR (GoB) [6]): 103%
Emax (human KOR (GoB) [7]): 80.5%
Emax (human KOR (GoB) [8]): 94.3%
Emax (human KOR (GoB) [9]): 108%
Emax (human KOR (GoB) [10]): 91%
Emax (human KOR (GoB) [11]): 107%
Emax (human KOR (GoB) [12]): 87.1%
Emax (human KOR (GoB) [13]): 87.8%
Emax (human KOR (GoB) [14]): 98.3%
Emax (human KOR (GoB) [15]): 100%
Emax (human KOR (GoB) [16]): 91.1%
Emax (human KOR (GoB) [17]): 77.5%
Emax (human KOR (GoB) [18]): 99.6%
Emax (human KOR (GoB) [19]): 99%
Emax (human KOR (GoB) [20]): 93.6%
Emax (human KOR (GoB) [21]): 98.7%
Emax% (human KOR (GoB) [22]): 99.55%
Emax (human KOR (GoB) [22]; HEK-293T): 99.8%
Emax (human KOR (GoB) [23]): 101%
KOR K227A_Gi response (Figure S4D) (KOR K227A; M -6, replicate values): 107.002 and 103.527 and 102.568
KOR K227A_Gi response (Figure S4D) (KOR K227A; M -6.5, replicate values): 98.0139 and 98.733 and 102.808
KOR K227A_Gi response (Figure S4D) (KOR K227A; M -7, replicate values): 101.489 and 104.366 and 102.568
KOR K227A_Gi response (Figure S4D) (KOR K227A; M -7.5, replicate values): 98.3734 and 96.4559 and 94.5383
KOR K227A_Gi response (Figure S4D) (KOR K227A; M -8, replicate values): 100.531 and 98.0139
KOR K227A_Gi response (Figure S4D) (KOR K227A; M -8.5, replicate values): 99.8116 and 103.767 and 98.2536
KOR K227A_Gi response (Figure S4D) (KOR K227A; M -9, replicate values): 96.9353 and 103.167 and 100.291
KOR K227A_Gi response (Figure S4D) (KOR K227A; M -9.5, replicate values): 98.9727 and 99.5719 and 95.8566
KOR K227A_Gi response (Figure S4D) (KOR K227A; M -10, replicate values): 99.3322 and 106.283 and 99.5719
KOR K227A_Gi response (Figure S4D) (KOR K227A; M -10.5, replicate values): 95.9765 and 94.778 and 93.8193
KOR K227A_Gi response (Figure S4D) (KOR K227A; M -11, replicate values): 90.7033 and 96.5757 and 95.2574
KOR K227A_Gi response (Figure S4D) (KOR K227A; M -12, replicate values): 68.1721 and 73.8049 and 67.4531
KOR K227A_Gi response (Figure S4D) (KOR K227A; M -12.5, replicate values): 37.1319 and 43.2441 and 45.1616
KOR K227A_Gi response (Figure S4D) (KOR K227A; M -13, replicate values): 12.6833 and 10.4062
KOR K227A_Gi response (Figure S4D) (KOR K227A; M -14, replicate values): 6.331 and 5.612 and 17.3573
Emax (human KOR (Gi3) [24]): 95.8%
Emax (human KOR (Gi3) [25]): 101%
Emax (human KOR (Gi3) [26]): 98.2%
Emax (human KOR (Gi3) [27]): 103%
Emax (human KOR (Gi3) [28]): 93.1%
Emax (human KOR (Gi3) [29]): 66.9%
